The test system of this experiment is C57 B16J mice. Kind of experiment: Tail suspension test (animal model of depression). Type of experiment: in vivo. Particulars: CBG dose greater than or equal to 40 mg/kg ip, tested 30 minutes after injection for six minutes. The method, then: A substantially pure extract of cannabigerol, purified from a cannabis plant extract, was tested for its ability to modify the behaviour of mice during an open field test and a tail suspension test (Steru et al., 1985, Psychopharmacology (Berl.) 85(3), 367-370). The CBG extract was compared to a known antidepressant imipramine.
The experiment used groups of 7-8 C57 B16J mice and these were tested with doses of 0, 5, 10, 20, 40, 60 and 80 mg/kg ip of CBG extract. The dose of imipramine that was used was the standard dose that is known to produce an anti-depressant effect of 30 mg/kg ip. One group of animals were administered a vehicle control.
The animals were subjected to a tail suspension test whereby a sound-attenuated chamber with a titanium bar mounted 15 cm from the floor was used. An opto-electronic sensor was mounted in a white plastic column and positioned from the mounting bar. An infra-red light transmitted from an LED onto the animal. If the animal moved, the amount of light collected by the phototransistor would increase or decrease depending on the size of the movement. […]
The mouse was suspended from a bar by the tip of its tail using adhesive tape so that the tip of their nose was 2 cm from the floor of the chamber. The total number of movements and total amount of time spent immobile were recorded.

With `CCCCCc1cc(O)c(C/C=C(\C)CCC=C(C)C)c(O)c1` [CBG, cannabigerol], the “amount of struggling in the tail suspension test compared with vehicle control” value is “significantly increased”.

The record behind these values is patent US20140039043A1, “PHARMACEUTICAL COMPOSITIONS COMPRISING CANNABIGEROL” (GW Pharma Limited, priority 2006, published 2014).
